Laboratory results reported in patent US4579866A, “Phenylacetamides as anti-allergy, anti-asthma and anti-inflammatory agents” (USV Pharmaceutical Corp., priority 1984, dated 1986).

How the values were obtained:
LTC4 = test: Antagonism of leukotriene C4 binding (guinea pig peripheral lung strips, contraction); assay type: cell-based; settings: Cavia porcellus, leukotriene C4 usually 0.2 nM, 37° C., read-out: ANTAGONISM OF LTC4 BINDING, I50
Procedure: Protocol for Antagonism of Leukotrines C-4 Binding
Peripheral strips of guinea pig lungs are prepared and hung in tissue baths according to the procedure described by Drazen et al. (Proc. Nat'l. Acad. Sci., U.S.A. 77, 4354-4358, 1980). Male guinea pigs (Charles River, 250-400 g) are sacrificed by cervical dislocation and their lungs rapidly removed. The individual lobes are dissected free and rinsed in Assay Buffer (118 mM NaCl, 5.4 mM KCl, 2.5 mM CaCl2, 25 mM […], 1 mM MgSO4, 1 mM NaH2 PO4, 11 mM glucose) which is continuously aerated with 95% oxygen/5% carbon dioxide. After the lobes are extensively rinsed, a strip of lung tissue, approximately 2 mm thick and 5-8 cm long, is cut off the sharpest and most peripheral portion of each lobe. The peripheral edge is cut almost completely around the outside of the lobe so that a U-shaped strip is obtained. These strips are rinsed in Assay Buffer and then connected with surgical silk thread to the support rods of the water jacketed tissue baths (10 ml chambers). The other ends of the strips are connected to Gould UC3 pressure transducers which had been previously calibrated. The tissue baths are aerated with 95% oxygen/5% carbon dioxide and maintained at 37° C. The tension on these strips are adjusted to 500 mg. The tissues are initially washed with fresh buffer every 5-10 minutes for about 30 minutes and thereafter washed with fresh assay buffer at least every 20 minutes.
After the tissue had been repeatedly washed and allowed to equilibrate in the tissue baths, they are challenged with 1 μM histamine to standardize the contractions for each tissue.
Responses of each tissue to a predetermined concentration (usually 0.2 nM) of leukotriene C4 are then obtained. Compounds are then tested for their ability to antagonize to leukotriene C4 immediately upon challenge.
(§1) If the percentage of inhibition exceeds 50%, the compounds are then evaluated in terms of response over a range of concentrations. From a plot of response against concentration, the I50 value is obtained. The I50 value is the concentration at which 50% inhibition is observed.

RAT 5-LIPOXYGENASE = biological target: T1, RAT 5-LIPOXYGENASE (Rattus norvegicus, UniProt P12527); test: Biosynthesis of 5-HETE by rat polymorphonuclear leukocytes in vitro (inhibition of rat 5-lipoxygenase); assay type: cell-based; settings: rat neutrophils, A23187, 3 minutes at 30° C.; for IC50: concentration at which 50% inhibition is observed, read-out: INHIBITION OF RAT 5-LIPOXYGENASE, I50
T1 construct: A suspension of rat neutrophils in buffer; endogenous in cells; host or cells: rat neutrophils (polymorphonuclear leukocytes)
T1 sequence (P12527 1-673): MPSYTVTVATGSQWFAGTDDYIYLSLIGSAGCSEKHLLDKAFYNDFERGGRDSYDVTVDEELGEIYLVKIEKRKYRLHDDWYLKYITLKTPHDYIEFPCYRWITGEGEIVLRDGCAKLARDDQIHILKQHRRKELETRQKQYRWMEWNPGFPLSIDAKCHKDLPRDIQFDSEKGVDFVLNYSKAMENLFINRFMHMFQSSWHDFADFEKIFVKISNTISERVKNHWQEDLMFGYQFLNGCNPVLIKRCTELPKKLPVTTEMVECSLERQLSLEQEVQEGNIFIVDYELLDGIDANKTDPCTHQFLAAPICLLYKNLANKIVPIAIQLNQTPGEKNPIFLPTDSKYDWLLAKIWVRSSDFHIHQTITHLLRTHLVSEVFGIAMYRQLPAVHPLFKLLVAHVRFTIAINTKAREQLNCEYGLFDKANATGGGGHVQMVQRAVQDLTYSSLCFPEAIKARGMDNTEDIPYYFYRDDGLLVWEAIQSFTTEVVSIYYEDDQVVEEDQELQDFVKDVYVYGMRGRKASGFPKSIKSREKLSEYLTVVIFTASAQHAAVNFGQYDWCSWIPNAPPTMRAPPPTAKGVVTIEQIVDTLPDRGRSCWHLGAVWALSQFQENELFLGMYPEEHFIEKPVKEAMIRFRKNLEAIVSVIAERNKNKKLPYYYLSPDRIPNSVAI
Procedure: Protocol for the Biosynthesis of 5-HETE by Rat Polymorphonuclear Leukocytes In Vitro
A suspension of rat neutrophils in buffer is incubated for 3 minutes at 30° C. with [^14 C]-arachidonic acid (AA) and calcium ionophore A23187. Citric Acid (2M) NDGA (10 mM) is used to quench the reaction. Following the addition of a trace amount of (^3 H)-5-HETE together with an excess of unlabeled 5-HETE to each tube, the mixture is extracted with chloroform/methanol. The organic layer is washed with dilute acid and an aliquot is transferred to glass tubes and dried. The residue is dissolved in a small volume of chloroform and an aliquot is spotted on silica gel TLC sheets, which are developed with an ethyl acetate/isoctane/water/acetic acid solvent system. The 5-HETE spots are visualized under UV light, cut out and placed in scintillation vials for counting. After adjusting for the extraction efficiency, the amount (pmole) of [^14 C]-5-HETE in each of the tubes is quantitated. The net pmoles of 5-HETE are obtained by subtracting the pmoles of 5-HETE in the tubes containing buffer alone (blank) from the pmoles of 5-HETE in the tubes containing […]. The ability of the test compounds to modulate the activity of this enzyme is determined by a decrease or increase in the net amount of 5-HETE produced.
as §1

Compound	IC50 (LTC4)	inhibition at 10 µM (RAT 5-LIPOXYGENASE)	IC50 (RAT 5-LIPOXYGENASE)
C=CCOc1ccc(CC(=O)NC(Cc2ccc(Cl)cc2)C(=O)OC)cc1Cl (racemic) [4-Allyloxy-3-chlorophenylacetyl-DL-p-chlorophenylalanine methyl ester]	9 µM	25%	
COC(=O)[C@@H](Cc1ccccc1)NC(=O)Cc1ccc(OCc2ccc3ccccc3n2)c(Cl)c1 [1-Chloro-4-[2-quinolinemethyloxy]-phenylacetyl-D-phenylalanine methyl ester]		50%	
COC(=O)[C@@H](Cc1ccccc1)NC(=O)Cc1ccc(OC)c(Cl)c1 [3-Chloro-4-methoxyphenylacetyl-D-phenylalanine methyl ester]			3.8 µM
C=CCOc1ccc(C(=O)N[C@@H](Cc2ccccc2)C(=O)OC)cc1Cl [4-Allyloxy-3-chlorobenzoyl-L-phenylalanine methyl ester]	15 µM	34%	
C=CCOc1ccc(CC(=O)N(C)[C@H](C)[C@@H](O)c2ccccc2)cc1Cl [4-Allyloxy-3-chlorophenylacetyl-(+)-ephedrine]			15 µM
C=CCOc1ccc(CC(=O)N(C)[C@@H](C)[C@H](O)c2ccccc2)cc1Cl [4-Allyloxy-3-chlorophenylacetyl-(-)-ephedrine]			30 µM
C=CCOc1ccc(CC(=O)N[C@H](Cc2ccccc2)C(=O)OC)cc1Cl [4-Allyloxy-3-chlorophenylacetyl-D-phenylalanine methyl ester]	9 µM		0.7 µM
C=CCOc1ccc(CC(=O)N[C@@H](Cc2ccccc2)C(=O)OC)cc1Cl [4-Allyloxy-3-chlorophenylacetyl-L-phenylalanine methyl ester]	5 µM	27%	
C=CCOc1ccc(CC(=O)N(CC(=O)OCC)Cc2ccccc2)cc1Cl [4-Allyloxy-3-chlorophenylacetyl-N--benzylglycine ethyl ester]	20 µM		8 µM
O=C(Cc1ccc(OCc2ccccc2)c(Cl)c1)N[C@H](Cc1ccccc1)C(=O)O [4-Benzyloxy-3-chlorophenylacetyl-D-phenylalanine]		40%	
COC(=O)[C@H](Cc1ccccc1)NC(=O)Cc1ccc(OCc2ccccc2)cc1 [4-Benzyloxyphenylacetyl-L-phenylalanine methyl ester]	5 µM	29%	
COC(=O)[C@H](Cc1ccccc1)NC(=O)c1ccc(OC2C=CCCC2)cc1 (stereo partly drawn) [4-[2-Cyclohexenyloxy]-benzoyl-L-phenylalanine methyl ester]		33%	
COc1ccc(CC(=O)N(C)CCc2ccccc2)cc1Cl [N--[3-Chloro-4-methoxyphenylacetyl]-N--methyl-2-phenylethylamine]		33%	
C=CCOc1ccc(CC(=O)NCC(C)c2ccccc2)cc1Cl (centres unmarked) [N--[4-Allyloxy-3-chlorophenylacetyl]-1-amino-2-phenylpropane]	2.5 µM	18%	
C=CCOc1ccc(CC(=O)NCC(O)c2ccccc2)cc1Cl (centres unmarked) [N--[4-Allyloxy-3-chlorophenylacetyl]-2-hydroxy-2-phenylethylamine]			20 µM
C=CCOc1ccc(CC(=O)NC(CO)C(O)c2ccccc2)cc1Cl [N--[4-Allyloxy-3-chlorophenylacetyl]-3S-hydroxy-L-phenylalaninol]		36%	
C=CCOc1ccc(CC(=O)N[C@H](CO)Cc2ccccc2)cc1Cl [N--[4-Allyloxy-3-chlorophenylacetyl]-L-phenylalaninol]	3 µM	33%	
C=CCOc1ccc(CC(=O)N(C)CC(O)c2ccccc2)cc1Cl (centres unmarked) [N--[4-Allyloxy-3-chlorophenylacetyl]-N--methyl-2-hydroxy-2-phenylethylamine]	18 µM		1.8 µM
C=CCOc1ccc(CC(=O)N(CCO)Cc2ccccc2)cc1Cl [N--benzyl, N--[2-hydroxyethyl]-3-chloro-4-allyloxyphenylacetamide]		41%	
C=CCOc1ccc(CC(=O)N(C)Cc2ccccc2)cc1Cl [N--benzyl, N--methyl-3-chloro-4-allyloxy-phenylacetamide]			20 µM
